Data: the supplement of paper PMC10307832

Experiments:
Assay in all cases: relative viability (nuclei count vs DMSO), 5 days (fraction); higher = more cells survive
COR-L23 = system: COR-L23
Summary of the method: (§1)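 One day after seeding in 1536-well plates, lung cancer cell lines were dosed by pin tool. Dosing was either single-drug or a fixed anchor-drug dose plus five library-drug doses (not always all listed) in √10 steps. After 5 days, nuclei were stained in one fix-and-stain step and counted on 4× images, and relative viability is the nuclei count of treated wells over that of vehicle wells, given as the median of duplicate plates.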

NCI-H650 = system: NCI-H650
Summary of the method: as §1

EMC-BAC-2 = system: EMC-BAC-2
Summary of the method: as §1

NCI-H1793 = system: NCI-H1793
Summary of the method: as §1

HCC-366 = system: HCC-366
Summary of the method: as §1

NCI-H2347 = system: NCI-H2347
Summary of the method: as §1

NCI-H2009 = system: NCI-H2009
Summary of the method: as §1

NCI-H1395 = system: NCI-H1395
Summary of the method: as §1

NCI-H1755 = system: NCI-H1755
Summary of the method: as §1

NCI-H1437 = system: NCI-H1437
Summary of the method: as §1

NCI-H23 = system: NCI-H23
Summary of the method: as §1

SK-MES-1 = system: SK-MES-1
Summary of the method: as §1

NCI-H2342 = system: NCI-H2342
Summary of the method: as §1

NCI-H358 = system: NCI-H358
Summary of the method: as §1

LC-2-ad = system: LC-2-ad
Summary of the method: as §1

201T = system: 201T
Summary of the method: as §1

COR-L 105 = system: COR-L 105
Summary of the method: as §1

NCI-H2023 = system: NCI-H2023
Summary of the method: as §1

NCI-H1915 = system: NCI-H1915
Summary of the method: as §1

HCC-15 = system: HCC-15
Summary of the method: as §1

PC-14 = system: PC-14
Summary of the method: as §1

With Cc1cn(-c2cc(NC(=O)c3ccc(C)c(Nc4nccc(-c5cccnc5)n4)c3)cc(C(F)(F)F)c2)cn1 [Nilotinib] + COc1cc2c(Oc3ccc(NC(=O)C4(C(=O)Nc5ccc(F)cc5)CC4)cc3F)ccnc2cc1OCCCN1CCOCC1 [Foretinib] (partner 0.25 µM) the relative viability (COR-L23; first compound 0.001 µM) was 0.853, the relative viability (COR-L23; first compound 0.003162 µM) was 1.28 and the relative viability (COR-L23; first compound 0.01 µM) was 1.13. It also gave a relative viability (COR-L23; first compound 0.03162 µM) of 0.821, a relative viability (COR-L23; first compound 0.1 µM) of 0.924 and a relative viability (NCI-H650; first compound 0.001 µM) of 0.982. The relative viability (NCI-H650; first compound 0.003162 µM) was 0.999, the relative viability (NCI-H650; first compound 0.03162 µM) was 0.986 and the relative viability (NCI-H650; first compound 0.1 µM) was 1. For the same molecule, the relative viability (EMC-BAC-2; first compound 0.001 µM) was 0.963, the relative viability (EMC-BAC-2; first compound 0.003162 µM) was 1.14 and the relative viability (EMC-BAC-2; first compound 0.01 µM) was 1.13. It also gave a relative viability (EMC-BAC-2; first compound 0.03162 µM) of 0.922, a relative viability (EMC-BAC-2; first compound 0.1 µM) of 1.02 and a relative viability (NCI-H1793; first compound 0.001 µM) of 0.768. It also gave a relative viability (NCI-H1793; first compound 0.003162 µM) of 1.02, a relative viability (NCI-H1793; first compound 0.01 µM) of 0.79 and a relative viability (NCI-H1793; first compound 0.03162 µM) of 0.542. The relative viability (NCI-H1793; first compound 0.1 µM) was 0.582, the relative viability (HCC-366; first compound 0.001 µM) was 0.959 and the relative viability (HCC-366; first compound 0.003162 µM) was 1.08. The relative viability (HCC-366; first compound 0.01 µM) was 1.17, the relative viability (HCC-366; first compound 0.03162 µM) was 0.916 and the relative viability (HCC-366; first compound 0.1 µM) was 0.953. For the same molecule, the relative viability (NCI-H2347; first compound 0.001 µM) was 1.14, the relative viability (NCI-H2347; first compound 0.003162 µM) was 0.65 and the relative viability (NCI-H2347; first compound 0.01 µM) was 0.6. The relative viability (NCI-H2347; first compound 0.03162 µM) was 0.77, the relative viability (NCI-H2347; first compound 0.1 µM) was 0.501 and the relative viability (NCI-H2009; first compound 0.001 µM) was 1.12. The relative viability (NCI-H2009; first compound 0.003162 µM) was 1.41, the relative viability (NCI-H2009; first compound 0.01 µM) was 1.32 and the relative viability (NCI-H2009; first compound 0.03162 µM) was 1.16. For the same molecule, the relative viability (NCI-H2009; first compound 0.1 µM) was 1.1, the relative viability (NCI-H1395; first compound 0.001 µM) was 1.07 and the relative viability (NCI-H1395; first compound 0.003162 µM) was 0.937. The relative viability (NCI-H1395; first compound 0.01 µM) was 0.953, the relative viability (NCI-H1395; first compound 0.03162 µM) was 0.853 and the relative viability (NCI-H1395; first compound 0.1 µM) was 1.02. It also gave a relative viability (NCI-H1755; first compound 0.001 µM) of 0.892, a relative viability (NCI-H1755; first compound 0.003162 µM) of 0.968 and a relative viability (NCI-H1755; first compound 0.01 µM) of 0.974. For the same molecule, the relative viability (NCI-H1755; first compound 0.03162 µM) was 0.983, the relative viability (NCI-H1755; first compound 0.1 µM) was 0.843 and the relative viability (NCI-H1437; first compound 0.001 µM) was 1.2. For the same molecule, the relative viability (NCI-H1437; first compound 0.003162 µM) was 1.39, the relative viability (NCI-H1437; first compound 0.01 µM) was 1.26 and the relative viability (NCI-H1437; first compound 0.03162 µM) was 1.03. It also gave a relative viability (NCI-H1437; first compound 0.1 µM) of 1.27, a relative viability (NCI-H23; first compound 0.001 µM) of 1.06 and a relative viability (NCI-H23; first compound 0.003162 µM) of 1.13. The relative viability (NCI-H23; first compound 0.01 µM) was 1.02, the relative viability (NCI-H23; first compound 0.03162 µM) was 0.79 and the relative viability (NCI-H23; first compound 0.1 µM) was 0.658. For the same molecule, the relative viability (SK-MES-1; first compound 0.003162 µM) was 1.13, the relative viability (SK-MES-1; first compound 0.01 µM) was 1.23 and the relative viability (SK-MES-1; first compound 0.03162 µM) was 0.904. It also gave a relative viability (SK-MES-1; first compound 0.1 µM) of 0.963, a relative viability (NCI-H2342; first compound 0.001 µM) of 0.968 and a relative viability (NCI-H2342; first compound 0.003162 µM) of 1.1. The relative viability (NCI-H2342; first compound 0.03162 µM) was 0.979, the relative viability (NCI-H2342; first compound 0.1 µM) was 1 and the relative viability (NCI-H358; first compound 0.001 µM) was 0.655. The relative viability (NCI-H358; first compound 0.003162 µM) was 0.8, the relative viability (NCI-H358; first compound 0.01 µM) was 0.818 and the relative viability (NCI-H358; first compound 0.03162 µM) was 0.446. It also gave a relative viability (NCI-H358; first compound 0.1 µM) of 0.346, a relative viability (LC-2-ad; first compound 0.001 µM) of 0.912 and a relative viability (LC-2-ad; first compound 0.003162 µM) of 1.08. It also gave a relative viability (LC-2-ad; first compound 0.01 µM) of 0.963, a relative viability (LC-2-ad; first compound 0.03162 µM) of 0.827 and a relative viability (LC-2-ad; first compound 0.1 µM) of 0.804. It also gave a relative viability (201T; first compound 0.001 µM) of 0.9, a relative viability (201T; first compound 0.003162 µM) of 1.09 and a relative viability (201T; first compound 0.01 µM) of 1.32. For the same molecule, the relative viability (201T; first compound 0.03162 µM) was 1.01, the relative viability (201T; first compound 0.1 µM) was 1.14 and the relative viability (COR-L 105; first compound 0.001 µM) was 1.08. It also gave a relative viability (COR-L 105; first compound 0.01 µM) of 1.45, a relative viability (COR-L 105; first compound 0.03162 µM) of 0.99 and a relative viability (COR-L 105; first compound 0.1 µM) of 0.99. It also gave a relative viability (NCI-H2023; first compound 0.001 µM) of 0.839, a relative viability (NCI-H2023; first compound 0.01 µM) of 1.01 and a relative viability (NCI-H2023; first compound 0.03162 µM) of 0.88. It also gave a relative viability (NCI-H2023; first compound 0.1 µM) of 0.875, a relative viability (NCI-H1915; first compound 0.001 µM) of 0.966 and a relative viability (NCI-H1915; first compound 0.003162 µM) of 1.21. It also gave a relative viability (NCI-H1915; first compound 0.01 µM) of 1.2, a relative viability (NCI-H1915; first compound 0.03162 µM) of 0.983 and a relative viability (NCI-H1915; first compound 0.1 µM) of 0.952. For the same molecule, the relative viability (HCC-15; first compound 0.001 µM) was 0.975, the relative viability (HCC-15; first compound 0.003162 µM) was 1.25 and the relative viability (HCC-15; first compound 0.01 µM) was 1.09. The relative viability (HCC-15; first compound 0.03162 µM) was 0.858, the relative viability (HCC-15; first compound 0.1 µM) was 0.754 and the relative viability (PC-14; first compound 0.001 µM) was 0.974. It also gave a relative viability (PC-14; first compound 0.003162 µM) of 1.11, a relative viability (PC-14; first compound 0.01 µM) of 1.07 and a relative viability (PC-14; first compound 0.03162 µM) of 0.845. For the same molecule, the relative viability (PC-14; first compound 0.1 µM) was 0.928.
